Results published in patent US20250034129A1, “CRYSTALLINE FORMS OF (6S,7S)-6-FLUORO-7-(2-FLUORO-5-METHYLPHENYL)-3-(TETRAHYDRO-2H-PYRAN-4-YL)-5,6,7,8-TETRAHYDROPYRIDO[2,3-d]PYRIMIDINE-2,4(1H,3H)-DIONE” (MYOKARDIA, INC., priority 2023, published 2025).

How the values were obtained:
Type in all cases: physicochemical
[1] = Vapor sorption analysis (TA Instrument VTI-SA+)
Description: The vapor sorption experiments for Form B were performed using a TA Instrument VTI-SA+ Vapor Sorption Analyzer. Sample (˜10 mg) was placed in a previously cleaned and tarred platinum pan then loaded into the instrument chamber. Sample was dried at 60° C. until the loss rate of 0.005 wt %/min was obtained for 10 minutes. The sample was then held isothermally at 25° C. while the % RH of the system was stepped between 4, 5, 15, 25, 35, 45, 55, 65, 75, 85, 95, 85, 75, 65, 55, 45, 35, 25, 15, 5, 4% RH. Equilibration criteria was +/−0.01 wt % for 35 min with a maximum equilibration time of 600 min at each step.

[2] = Competitive slurry experiments in ethanol
[3] = Solid state stability in bio-relevant media; details: pH 1 HCl 0.1 M, pH 3.05 citrate 50 mM, pH 7.4 phosphate 50 mM, Fassif pH 6.5, Fessif pH 5.0, 37° C., 200 rpm
Description: Form B was added to bio-relevant media (pH 1 HCl 0.1 M; pH 3.05 citrate 50 mM; pH 7.4 phosphate 50 mM; Fassif pH 6.5; Fessif pH 5.0) and solid state stability in the media was determined. Procedures are described in more detail as follows:
pH 1 HCl 0.1M: […] HCl was diluted to 100 mL with water. pH 1.02
pH 3.05 citrate 50 mM: 82 mL of 0.1 M citric acid and 18 mL of 0.1 M sodium citrate were mixed together. pH=3.07.
pH 7.4 phosphate 50 mM: 50 mL of 0.2 M KH2PO4 and 39.1 mL of 0.2 M NaOH were dissolved and diluted to 200 mL with water. pH 7.39.
Fassif pH 6.5: 23.4 mg of NaOH, 224.7 mg of NaH2PO4·2H2O and 304.3 mg of NaCl were dissolved and diluted to 50 mL with water. 33.6 mg of SIF powder was dissolved in 15 mL of FaSSIF buffer solution. The solution was kept stirring and equilibrated at ambient condition with light protection for 2 hours. pH=6.37.
Fessif pH 5.0: 202.6 mg of NaOH, 432.7 mg of acetic acid, and 591.3 mg of NaCl were dissolved and diluted to 50 mL with water. pH of the solution was 4.99. 168 mg of SIF powder was dissolved in 15 mL of FeSSIF buffer solution. The solution was kept stirring and equilibrated at ambient condition with light protection for 2 hours. pH=4.94.
30-50 mg of Form B was weighed into 12 mL sample vials and then 3 mL of test media was added respectively. The suspensions were kept shaking at 200 rpm under 37° C. for 24 hours. […]

[4] = Stability study of Form B (thermal and humidity treatments; HPLC purity, XRPD form)
Description: The stability study of Form B (before milling) was carried out at 80° C. for two weeks and at 40° C./75% RH for one month. Purity was determined by HPLC and stability was determined by XRPD. […] The stability of milled Form B was carried out as well under the same conditions. […] A purity decrease of 0.8% was detected for milled Form B after being treated at 80° C. for […].

[5] = Slurry conversion of Form A in anhydrous ethanol; details: 60° C., 24 hours
Description: 3 g of Form A was slurried in 90 mL anhydrous ethanol at 60° C. for 24 hours.

- hygroscopicity by vapor sorption analysis [1]: non-hygroscopic
- weight percent gain as measured by vapor sorption analyzer ([1]; up to 95% RH, 25° C.): less than 0.05%
- relative stability versus Form A in competitive slurry ([2]; 10° C. and 60° C.): more stable compared to Form A
- relative stability versus Form C in competitive slurry ([2]; 10° C. and 60° C.): more stable compared to Form C
- relative stability versus Form E in competitive slurry ([2]; 22.5° C. and 60° C.): more stable compared to Form E
- solid form by XRPD after 24 hours in bio-relevant media [3]: remained as Form B
- purity by HPLC after stability test ([4]; before milling, 40° C./75% RH for one month): 99.9%
- purity by HPLC after stability test ([4]; before milling, 80° C. for two weeks): 99.9%
- crystal form by XRPD after stability test ([4]; before milling, 80° C. for two weeks and 40° C./75% RH for one month): remained unchanged
- crystal form by XRPD after thermal and humidity treatments ([4]; milled, 40° C./75% RH and 80° C.): remains unchanged
- degradation after stability test ([4]; milled, 40° C./75% RH for four weeks): did not show any degradation
- purity decrease after stability test ([4]; milled, 80° C. for four weeks): 0.8%
- thermodynamic stability compared to Form A, from conversion of Form A to Form B [5]: superior thermodynamic stability
SMILES: Cc1ccc(F)c([C@@H]2Nc3[nH]c(=O)n(C4CCOCC4)c(=O)c3C[C@@H]2F)c1 [Form B, (6S,7S)-6-fluoro-7-(2-fluoro-5-methylphenyl)-3-(tetrahydro-2H-pyran-4-yl)-5,6,7,8-tetrahydropyrido[2,3-d]pyrimidine-2,4(1H,3H)-dione]
- overall thermodynamic stability ranking compared to Forms A, C and E ([2]; temperature ranges covered in the experiments): thermodynamically most stable anhydrous form
